The EC50 is the concentration at which the effect is half-maximal.

The nature of series [1]: Liver Microsome Stability Assay (human). The conditions noted are these: human liver microsomes, with NADPH, 1.0 uM compound. For orientation: Liver microsomes are a subcellular fraction often used to study metabolism.
Method: (§1) Stability of a compound was assessed in the presence of liver microsomes from various sources—mouse, rat, monkey and human liver microsomes. 1.0 uM compound, 0.4% DMSO in 0.1 M Potassium Phosphate with 1.0 mg/mL liver microsomes, were incubated at 37° C. with or without 1 mM NADPH. The samples were quenched at 0, and 30 minutes.
Series [2] deals with HER3-ss+4aa/Gaussia Luciferase. In words: Dox-Induced Her3-ss-Gluc Assay. The conditions noted are these: 24 hr Dox induction; 293FRT/TO cells; read-out: 24 hr Dox Inducible Her3(ss + 4)Gluc 293FRT/TO: Mean IC50. The class given is cell-based. The essentials: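 Reporter line: Flp-In 293 T-REx, T-REx-regulated HER3-ss+4aa fused to Gaussia luciferase. Compound co-added with doxycycline after overnight plating, 37° C., 5% CO2.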

The test system of series [3] is IL-2-FL/Gaussia Luciferase. In words: Dox Induced IL2-FL-Gluc Assay. The class given is cell-based. The conditions noted are these: for IC50: 24 hr Dox induction, 293FRT/TO cells, read-out: 24 hr Dox Inducible IL2FLGluc 293FRT/TO: Mean IC50; for 24 hr Dox Inducible IL2FLGluc 293FRT/TO: IL2/PD1: ratio of IL2FLGluc IC50 to PD1ssGluc IC50. The essentials:
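Doxycycline induces an IL-2(1-153)–Gaussia luciferase fusion in a stable Flp-In 293 T-REx line. Compound exposure runs alongside induction at 37° C.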

Series [4] can be described thus: Liver Microsome Stability Assay (monkey). The conditions noted are these: monkey liver microsomes, with NADPH, 1.0 uM compound.
Method: as §1
Series [5] relates to TNFα-FL/Gaussia Luciferase. The series is described as follows: Dox Induced TNFα-FL-Gluc Assay. It counts as cell-based. The conditions noted are these: for IC50: 24 hr Dox induction, 293FRT/TO cells, read-out: 24 hr Dox Inducible TNFaFLGluc 293FRT/TO: Mean IC50; for 24 hr Dox Inducible TNFaFLGluc 293FRT/TO: TNF/PD1: ratio of TNFaFLGluc IC50 to PD1ssGluc IC50. An outline of the steps:
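Doxycycline-inducible Gaussia luciferase-tagged full-length TNFα (1-233) was expressed in stable Flp-In 293 T-REx cells. Compounds were co-added with doxycycline and incubated at 37 °C, 5% CO2.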

Series [6] in a line: Liver Microsome Stability Assay (rat). The conditions noted are these: rat liver microsomes, with NADPH, 1.0 uM compound.
Method: as §1
In series [7] the test system is PD1-ss+10aa/Gaussia Luciferase. The series is described as follows: Dox-Induced PD1-ss-Gluc Assay. It counts as cell-based. The conditions noted are these: 24 hr Dox induction; 293FRT/TO cells; read-out: 24 hr Dox Inducible PD1ssGluc 293FRT/TO: Mean IC50. An outline of the steps:
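Stable Flp-In 293 T-REx cells carried a doxycycline-inducible construct of Gaussia luciferase fused to the PD1 signal sequence plus 10 amino acids. Cells were plated the day before, then treated with compound dilutions in DMSO/media containing doxycycline at 37 °C, 5% CO2.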

For series [8], the system named is multiple myeloma cell line U266B1. In words: U266 Cell Viability Assay. The class given is cell-based, human. The conditions noted are these: Homo sapiens, U-266, 48 h, U266B1 cells, Celltiter-Glo. An outline of the steps: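 Viability is measured as luciferase signal from CellTiter-Glo following a 48-hour incubation with compound at 37° C. under 5% CO2. Where structures lack drawn stereochemistry, values refer to stereoisomer mixtures.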
(In ATP-based viability assays light output follows the ATP content of the culture.)

Series [9] can be described thus: Liver Microsome Stability Assay (mouse). The conditions noted are these: mouse liver microsomes, with NADPH, 1.0 uM compound.
Method: as §1
The subject of series [10] is multiple myeloma cell line NCI-H929. The series is described as follows: H929 Cell Viability Assay. The class given is cell-based, human. The conditions noted are these: Homo sapiens, NCI-H929, 48 h, NCI-H929 cells, Celltiter-Glo. An outline of the steps:
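Viability is scored by CellTiter-Glo luminescence following a 48-hour treatment at 37° C. Data for structures shown without stereochemistry refer to stereoisomer mixtures.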

For the compound `Cc1cccc2nc(/C=C/c3csc(NC(=O)c4cccn4Cc4ccnc(F)c4)n3)cn12` [Compound B70, (E)-1-((2-fluoropyridin-4-yl)methyl)-N-(4-(2-(5-methylimidazo[1,2-a]pyridin-2-yl)vinyl)thiazol-2-yl)-1H-pyrrole-2-carboxamide], the “Liver Microsome Stability (Multiple Species): Human - % Remaining after 30 min w/NADPH” value in series [1] came to 0.35%. Besides, the IC50 in [2] was over 25 µM; in series [3], over 25 µM; in series [5] it was over 25 µM; in series [7], 0.499 µM. For the same compound, the “24 hr Dox Inducible IL2FLGluc 293FRT/TO: IL2/PD1” value in [3] was over 50. The “Liver Microsome Stability (Multiple Species): Monkey - % Remaining after 30 min w/NADPH” value in [4] worked out at 0.19%. In series [5], the “24 hr Dox Inducible TNFaFLGluc 293FRT/TO: TNF/PD1” value is over 50.1. In series [6], the “Liver Microsome Stability (Multiple Species): Rat - % Remaining after 30 min w/NADPH” value was 1.37%. In addition, the EC50 in series [8] and in series [10] was over 25 µM each time. Besides, in series [9], the “Liver Microsome Stability (Multiple Species): Mouse - % Remaining after 30 min w/NADPH” value came out at 2.19%.
In the case of `O=C(Nc1nc(/C=C/c2cn3c(n2)CCC3)cs1)c1cccn1Cc1ccncc1` [Compound B71, (E)-N-(4-(2-(6,7-dihydro-5H-pyrrolo[1,2-a]imidazol-2-yl)vinyl)thiazol-2-yl)-1-(pyridin-4-ylmethyl)-1H-pyrrole-2-carboxamide], in [1], the “Liver Microsome Stability (Multiple Species): Human - % Remaining after 30 min w/NADPH” value amounted to 0.03%. Further, the IC50 in series [2] was over 25 µM; in series [3], over 25 µM; in series [5] it was over 25 µM; in series [7], 0.298 µM. Besides, the “24 hr Dox Inducible IL2FLGluc 293FRT/TO: IL2/PD1” value in series [3] is on record as over 84. In addition, in series [4], the “Liver Microsome Stability (Multiple Species): Monkey - % Remaining after 30 min w/NADPH” value was 0.03%. For the same compound, the “24 hr Dox Inducible TNFaFLGluc 293FRT/TO: TNF/PD1” value in [5] is reported as over 83.9. For the same compound, in series [6], the “Liver Microsome Stability (Multiple Species): Rat - % Remaining after 30 min w/NADPH” value was 0.1%. The EC50 in series [8] and in series [10] was over 25 µM throughout. The “Liver Microsome Stability (Multiple Species): Mouse - % Remaining after 30 min w/NADPH” value in series [9] came out at 0.16%.
With `CC(C)c1nc(/C=C/c2csc(NC(=O)c3cccn3Cc3ccncc3)n2)cn1C` [Compound B72, (E)-N-(4-(2-(2-isopropyl-1-methyl-1H-imidazol-4-yl)vinyl)thiazol-2-yl)-1-(pyridin-4-ylmethyl)-1H-pyrrole-2-carboxamide], the “Liver Microsome Stability (Multiple Species): Human - % Remaining after 30 min w/NADPH” value in series [1] came to 0.95%. For the same compound, the IC50 is 10.6 µM in series [2], over 25 µM in series [3], over 25 µM in [5] and 7.15 µM in [7]. Besides, the “24 hr Dox Inducible IL2FLGluc 293FRT/TO: IL2/PD1” value in series [3] is given as over 3.5. The “Liver Microsome Stability (Multiple Species): Monkey - % Remaining after 30 min w/NADPH” value in series [4] is 0.06%. In series [5], the “24 hr Dox Inducible TNFaFLGluc 293FRT/TO: TNF/PD1” value is on record as over 3.50. The “Liver Microsome Stability (Multiple Species): Rat - % Remaining after 30 min w/NADPH” value in series [6] is given as 0.16%. Further, the EC50 in series [8] and in series [10] was over 25 µM throughout. Further, the “Liver Microsome Stability (Multiple Species): Mouse - % Remaining after 30 min w/NADPH” value in series [9] amounted to 0.03%.
Consider `CC(C)c1cccc2nc(/C=C/c3csc(NC(=O)c4cccn4Cc4ccnc(F)c4)n3)cn12` [Compound B73, (E)-1-((2-fluoropyridin-4-yl)methyl)-N-(4-(2-(5-isopropylimidazo[1,2-a]pyridin-2-yl)vinyl)thiazol-2-yl)-1H-pyrrole-2-carboxamide], for which, in series [1], the “Liver Microsome Stability (Multiple Species): Human - % Remaining after 30 min w/NADPH” value amounted to 0.81%. Also, the IC50 in [2] was over 25 µM; in series [3], over 25 µM; in [5], over 25 µM; in series [7], 0.486 µM. Moreover, in series [3], the “24 hr Dox Inducible IL2FLGluc 293FRT/TO: IL2/PD1” value is recorded as over 51. The “Liver Microsome Stability (Multiple Species): Monkey - % Remaining after 30 min w/NADPH” value in series [4] amounted to 0.48%. For the same compound, the “24 hr Dox Inducible TNFaFLGluc 293FRT/TO: TNF/PD1” value in [5] is reported as over 51.4. In addition, in series [6], the “Liver Microsome Stability (Multiple Species): Rat - % Remaining after 30 min w/NADPH” value came to 3.87%. Besides, the EC50 in series [8] and in series [10] was over 25 µM throughout. The “Liver Microsome Stability (Multiple Species): Mouse - % Remaining after 30 min w/NADPH” value in [9] was found to be 1.62%.
For the compound `CC(C)n1ccc(/C=C/c2csc(NC(=O)c3cccn3Cc3ccnc(F)c3)n2)n1` [Compound B74, (E)-1-((2-fluoropyridin-4-yl)methyl)-N-(4-(2-(1-isopropyl-1H-pyrazol-3-yl)vinyl)thiazol-2-yl)-1H-pyrrole-2-carboxamide], the “Liver Microsome Stability (Multiple Species): Human - % Remaining after 30 min w/NADPH” value in [1] turned out to be 0.44%. Further, the IC50 in series [2] is 4.08 µM; in series [3], 5.36 µM; in [5], 9.97 µM; in series [7], 0.418 µM. Besides, the “24 hr Dox Inducible IL2FLGluc 293FRT/TO: IL2/PD1” value in series [3] is given as 13. In addition, the “Liver Microsome Stability (Multiple Species): Monkey - % Remaining after 30 min w/NADPH” value in [4] was found to be 0.13%. For the same compound, the “24 hr Dox Inducible TNFaFLGluc 293FRT/TO: TNF/PD1” value in series [5] is reported as 23.9. Besides, the “Liver Microsome Stability (Multiple Species): Rat - % Remaining after 30 min w/NADPH” value in series [6] stood at 0.43%. Besides, the EC50 is 5.49 µM in series [8] and 5.29 µM in [10]. Moreover, the “Liver Microsome Stability (Multiple Species): Mouse - % Remaining after 30 min w/NADPH” value in [9] is on record as 3.41%.
For the compound `CC(C)n1ccc(/C=C/c2csc(NC(=O)c3cccn3Cc3ccncc3)n2)n1` [Compound B75, (E)-N-(4-(2-(1-isopropyl-1H-pyrazol-3-yl)vinyl)thiazol-2-yl)-1-(pyridin-4-ylmethyl)-1H-pyrrole-2-carboxamide], the “Liver Microsome Stability (Multiple Species): Human - % Remaining after 30 min w/NADPH” value in [1] is reported as 2.26%. The IC50 in series [2] is 5.67 µM; in [3], 17.1 µM; in series [5], 10.3 µM; in series [7] it was 0.446 µM. Besides, in series [3], the “24 hr Dox Inducible IL2FLGluc 293FRT/TO: IL2/PD1” value is given as 38. Besides, the “Liver Microsome Stability (Multiple Species): Monkey - % Remaining after 30 min w/NADPH” value in [4] is 0.23%. For the same compound, in [5], the “24 hr Dox Inducible TNFaFLGluc 293FRT/TO: TNF/PD1” value turned out to be 23. Besides, the “Liver Microsome Stability (Multiple Species): Rat - % Remaining after 30 min w/NADPH” value in series [6] is reported as 0.27%. Further, the EC50 in [8] was 6.75 µM; in series [10] it was 7.16 µM. Also, the “Liver Microsome Stability (Multiple Species): Mouse - % Remaining after 30 min w/NADPH” value in series [9] is on record as 0.94%.
For the compound `CC(C)c1cccc2nc(/C=C/c3csc(NC(=O)c4cccn4Cc4ccncc4)n3)cn12` [Compound B76, (E)-N-(4-(2-(5-isopropylimidazo[1,2-a]pyridin-2-yl)vinyl)thiazol-2-yl)-1-(pyridin-4-ylmethyl)-1H-pyrrole-2-carboxamide], the “Liver Microsome Stability (Multiple Species): Human - % Remaining after 30 min w/NADPH” value in series [1] turned out to be 0.76%. Besides, the IC50 is 1.6 µM in series [2], over 25 µM in series [3], over 25 µM in series [5] and 0.419 µM in [7]. The “24 hr Dox Inducible IL2FLGluc 293FRT/TO: IL2/PD1” value in series [3] is over 60. Besides, the “Liver Microsome Stability (Multiple Species): Monkey - % Remaining after 30 min w/NADPH” value in [4] turned out to be 0.25%. For the same compound, the “24 hr Dox Inducible TNFaFLGluc 293FRT/TO: TNF/PD1” value in [5] was over 59.6. In addition, the “Liver Microsome Stability (Multiple Species): Rat - % Remaining after 30 min w/NADPH” value in series [6] is given as 0.52%. Moreover, the EC50 in series [8] and in series [10] was over 25 µM in each case. For the same compound, the “Liver Microsome Stability (Multiple Species): Mouse - % Remaining after 30 min w/NADPH” value in series [9] is 0.37%.
